Assays:
[1] = system: L428s; assay: Clonogenic survival in methylcellulose, L428s; assay type: cell-based, human; details: very low doses (0.1 and 0.5 μmol)
Procedure: In all examples, the human Hodgkin lymphoma-derived cell lines L428, L428-c, KMH2, L591, L540, L1236, HDLM2 and SUP-HD were obtained from Dr Steffen Junker (Aarhus University Denmark). All cell lines were cultured in Gibco RPMI 1640 medium supplemented with Glutamax, 10% FBS and antibiotics at 37° C. […] The immunophenotype, P53 status and MSI characterization of the Hodgkin lymphoma cell lines was determined using anti-CD30, CD15, CD20 and CD14 antibodies.
This test was performed on four Hodgkin lymphoma cell lines (L428, L428s, KMH2 and L540). Each was cultured with EDO-S101 at doses of 0, 0.1, 0.5, 1, 10 and 20 μmol in DMSO. The cell lines were cultured in methylcellulose (Stem cell Technologies) at a concentration of 10^5/ml at 37° C. and 5% CO2. The surviving fraction was determined by measuring the viability of colonies generated before and after exposure. Only colonies with more than 50 cells were counted. Each data point represents the average and SD from three independent experiments performed in triplicate.

[2] = system: L1236-R100; assay: Viable cell count and IC50, bendamustine-resistant cell line; assay type: cell-based, human
Procedure: (§1) • (a) Five Hodgkin lymphoma cell lines (KMH2, HDML2, L540, L1236 and L426) were cultured separately in the presence of bendamustine, vorinostat and EDO-S101 dissolved in DMSO at 37° C. L1236-derived Hodgkin lymphoma cell lines were selected as they have an acquired stable resistance to bendamustine (R100) or an ability to display continuous growth upon extended exposure to sub-lethal concentrations of bendamustine (R25, R50 and R75). A detailed description of the L1236-R Hodgkin lymphoma cell lines is disclosed in De Filippi et al, ASH 2015, Abstract. #2479. In these tests, the L1236-100R bendamustine resistant strain was used. […] Control cells were cultured in the same final concentration of DMSO. The number of viable cells was assessed at 24, 48 and 72 hours through a Countess™ automated cell counter (Invitrogen), each experiment being repeated three times and the results given being the mean of the three results±SD.

[3] = system: Hodgkin lymphoma cell lines (KMH2, HDML2, L540, L1236 and L426); assay: IC50 comparison of bendamustine, vorinostat and EDO-S101, five cell lines; assay type: cell-based, human
Procedure: as §1

[4] = system: L1236; assay: Cell cycle checkpoint proteins and gene expression, L1236; assay type: cell-based, human; details: naïve L1236; EDO-S101 alone
[5] = system: Hodgkin lymphoma cell lines; assay: Proliferation and IC50 determination (MTS assay; manual counting using Trypan blue); assay type: cell-based; details: Homo sapiens, 48 h, range over all cell lines
Procedure: Nine Hodgkin lymphoma cell lines were cultured at 37° C. in 24-well plates at a concentration of 0.3×10^6 cells/ml in the presence of EDO-S101 at concentrations of 0, 5, 10, 15 and 20 μmol in DMSO for 24 hours and 48 hours and the proliferation of the cells was determined using a non-radioactive cell proliferation MTS assay with CellTiter 96® Aqueous One solution reagent obtained from Promega® (this is a colorimetric method for determining the number of viable cells in a proliferation comprising a tetrazolium compound [3-(4,5-dimethylthiazol-2-yl)-5-(3-carboxymethoxyphenyl)-2-(4-sulfophenyl)-2H-tetrazolium, inner salt; MIS). The proliferation was plotted against concentration of EDO-S101 for treatment after both 24 and 48 hours.

[6] = system: L540; assay: Mitotic index, L540; assay type: cell-based, human
Procedure: (§2) The mitotic index and chromosomal aberrations for each of the cell lines were evaluated after treatment with either 20 μmol or 10 μmol EDO-S101 in DMSO. Each cell line was cultured at 37° C. in the presence of RPMI 1640 supplemented with 10% FCS and antibiotics. Colcemid (0.1 ug/ml) was added 2 h before harvesting and slides with chromosomes in metaphase were prepared following the standard methanol/acetic acid (3/1, v/v) procedure. The slides were stored at −20° C. until use.
(§3) FISH was performed using a combination of standard procedures from the recommended protocols for chromosome analysis, following telomere and centromere staining, using PNA probes. In all, 100 metaphases were scored per in vitro dose exposure.
(§4) The mitotic index was determined by measurement of the sum of all cells in prophase, metaphase, anaphase and telophase divided by the total number of cells.

[7] = system: KMH2; assay: Mitotic index and chromosomal aberrations, KMH2; assay type: cell-based, human
Procedure: as §2, §3, §4

[8] = system: CD14 cells; assay: CD14-positive cells by flow cytometry in xenografted NSG mice; assay type: in vivo
Procedure: Cells were gated to exclude apoptotic or necrotic cells and sorted into CD30−/CD15− and CD30+ and CD15+/CD30+ fractions by gating on the lowest and highest 5% PE-expressing cells, respectively. Following sorting, the CD30−/CD15− cell fractions were analyzed using a FACScan flow cytometer (Becton Dickinson) and found to be more than 98% pure. For phenotypic analyses of cell lines or sorted cells, cells were prepared as described, and then stained with mouse anti-human CD30-phycoerthrin (PE), CD15—fluorescein isothyocyanate (FITC), CD14-APC-cyanine 7 (Cy7) and CD45-APC (all antibodies from BD PharMingen, San Diego, CA). […] Cells were subsequently analysed using a FACS LSRII (Becton Dickinson, Franklin Lakes, NJ). […]
Novel biomarkers CD68 and CD14 which are expressed by tumour associated macrophages and myeloid derived suppressor cells respectively in the microenvironment have recently been reported to affect the prognosis of Hodgkin lymphoma (Haematologica, 2011 February; 96(2): 186-189). The presence of the CD14-positive cells following administration of a single dose of EDO-S101 (60 mg/kg or 80 mg/kg) and after two administrations of EDO-S101 at 60 mg/kg was evaluated using flow cytometry with anti CD14 antibodies.

## Cn1c(CCCCCCC(=O)NO)nc2cc(N(CCCl)CCCl)ccc21 [EDO-S101]
[1]
  clones observed (clonogenic survival): only macrophagic clones being observed
[2]; R100, 48 hours after treatment with 50 μM
  viable cells: no viable cells
[2]; bendamustine-resistant cell line R100
  anti-proliferative activity compared with vorinostat: greater than that of vorinostat
[3]; Homo sapiens, range over all cell lines tested, including L1236-R
  IC50: 1000 to 2000 nM
[3]; tumour cells of Hodgkin lymphoma
  IC50s relative to bendamustine: about ten-fold lower than those of bendamustine
[4]
  cell cycle checkpoint proteins, cellular and gene expression changes: activated cell cycle checkpoint proteins and induced cellular and gene expression changes compatible with the triggering of apoptosis
[5]
  IC50: 1.6 to 6.3 µM
[6]
  mitotic index: very low mitotic index
[7]
  mitotic index: very low mitotic index
[7]; telomere and centromere staining
  chromosomal aberrations in metaphase: numerous chromosomal aberrations
[8]; 60 mg/kg, 80 mg/kg, 2×60 mg/kg
  frequency of CD14 cells, untreated versus treated mice: significantly higher frequency of CD14 cells in untreated mice compared to treated mice
[8]; mouse, in vivo
  frequency of CD14 cells, 2×60 mg/kg versus 80 mg/kg: higher frequency following treatment with 2×60 mg/kg than treatment with a single dose of 80 mg/kg

Source: US12440475B2, “Hodgkin lymphoma therapy” (priority 2016, dated 2025)
